Compound: O=C(/C=C/c1cccnc1)NCCCCC1CCN(C(=O)c2ccccc2)CC1 [Daporinad] + CS(=O)(=O)N1CCN(Cc2cc3nc(-c4cccc5[nH]ncc45)nc(N4CCOCC4)c3s2)CC1 [Pictilisib] (partner 1 µM)
Assay: relative viability (nuclei count vs DMSO), 5 days (fraction); higher = more cells survive
Details: first compound 0.0005 µM
Method in brief: (§1)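 Relative viability divides the nuclei count in treated wells by that in vehicle wells. Lung cancer cell lines were seeded in 1536-well plates, dosed by pin tool the next day, and fixed and stained after 5 days in one step with final 0.05% Triton X-100, 1% formaldehyde and 1 ug/ml Hoechst. Dosing was a single drug or a fixed anchor-drug dose plus five library-drug doses (not always all listed) in √10 steps, and values are medians of duplicate plates imaged at 4×.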

Cell Line	relative viability
HCC-44	0.643
LU99A	0.312
BEN	0.624
HARA	0.329
HCC-78	0.217
NCI-H322M	0.482
LCLC-97TM1	0.2
A-427	0.559
NCI-H460	0.332
NCI-H727	0.359
NCI-H1734	0.454
NCI-H2347	0.636
NCI-H1395	0.615
201T	0.657
NCI-H1915	0.967
HCC-827	1.12
LXF-289	0.714

Cell Line	relative viability
NCI-H23	0.59
NCI-H650	0.937
NCI-H1651	0.642
EPLC-272H	0.295
NCI-H1792	0.212
NCI-H1355	0.417
NCI-H3122	0.446
NCI-H1437	0.418
NCI-H1755	0.442
HCC-15	0.664
PC-3 [JPC-3]	0.703
EKVX	0.478
LC-2-ad	0.389
NCI-H1975	0.267
ABC-1	0.652
NCI-H1944	0.366
RERF-LC-KJ	0.58

Same assay, conditions: first compound 0.001581 µM

Cell Line	relative viability
HCC-44	0.658
LU99A	0.383
BEN	0.62
HARA	0.568
HCC-78	0.145
NCI-H322M	0.55
LCLC-97TM1	0.185
A-427	0.79
NCI-H460	0.368
NCI-H727	0.354
NCI-H1734	0.529
NCI-H2347	0.788
NCI-H1395	0.697
201T	0.675
NCI-H1915	1.15
HCC-827	0.994
LXF-289	0.862

Cell Line	relative viability
NCI-H23	0.502
NCI-H650	0.962
NCI-H1651	0.683
EPLC-272H	0.382
NCI-H1792	0.317
NCI-H1355	0.549
NCI-H3122	0.617
NCI-H1437	0.527
NCI-H1755	0.44
HCC-15	0.8
PC-3 [JPC-3]	0.987
EKVX	0.432
LC-2-ad	0.514
NCI-H1975	0.333
ABC-1	0.934
NCI-H1944	0.346
RERF-LC-KJ	0.529

Same assay, conditions: first compound 0.005 µM

Cell Line	relative viability
HCC-44	0.706
LU99A	0.392
BEN	0.597
HARA	0.436
HCC-78	0.166
NCI-H322M	0.575
LCLC-97TM1	0.284
A-427	0.684
NCI-H460	0.423
NCI-H727	0.414
NCI-H1734	0.557
NCI-H2347	0.711
NCI-H1395	0.574
201T	0.682
NCI-H1915	1.13
HCC-827	1.23
LXF-289	0.879

Cell Line	relative viability
NCI-H23	0.446
NCI-H650	1.02
NCI-H1651	0.629
EPLC-272H	0.387
NCI-H1792	0.25
NCI-H1355	0.628
NCI-H3122	0.677
NCI-H1437	0.433
NCI-H1755	0.452
HCC-15	0.79
PC-3 [JPC-3]	0.824
EKVX	0.412
LC-2-ad	0.64
NCI-H1975	0.315
ABC-1	0.734
NCI-H1944	0.389
RERF-LC-KJ	0.525

Same assay, conditions: first compound 0.01581 µM

Cell Line	relative viability
HCC-44	0.657
LU99A	0.306
BEN	0.776
HARA	0.371
HCC-78	0.259
NCI-H322M	0.52
LCLC-97TM1	0.26
A-427	0.716
NCI-H460	0.535
NCI-H727	0.284
NCI-H1734	0.431
NCI-H2347	0.685
NCI-H1395	0.674
201T	0.635
NCI-H1915	0.929
HCC-827	1.01
LXF-289	0.859

Cell Line	relative viability
NCI-H23	0.347
NCI-H650	1.05
NCI-H1651	0.601
EPLC-272H	0.436
NCI-H1792	0.377
NCI-H1355	0.576
NCI-H3122	0.692
NCI-H1437	0.553
NCI-H1755	0.457
HCC-15	0.856
PC-3 [JPC-3]	0.659
EKVX	0.464
LC-2-ad	0.675
NCI-H1975	0.304
ABC-1	0.743
NCI-H1944	0.34
RERF-LC-KJ	0.695

Compound: O=C(/C=C/c1cccnc1)NCCCCC1CCN(C(=O)c2ccccc2)CC1 [Daporinad] + Nc1ncn([C@H]2C[C@H](O)[C@@H](CO)O2)c(=O)n1 [Decitabine] (partner 2 µM)
Assay: as above
Details: first compound 0.0005 µM
Method in brief: as §1

Cell Line	relative viability
HCC-44	0.921
LU99A	0.898
BEN	0.799
HARA	0.351
HCC-78	0.805
NCI-H322M	0.659
LCLC-97TM1	0.221
A-427	0.54
NCI-H460	0.493
NCI-H727	0.822
NCI-H1734	0.488
NCI-H2347	0.457
NCI-H1395	0.713
201T	0.849
NCI-H1915	0.25
HCC-827	0.322
LXF-289	0.4

Cell Line	relative viability
NCI-H23	0.319
NCI-H650	0.307
NCI-H1651	0.711
EPLC-272H	0.318
NCI-H1792	0.545
NCI-H1355	0.373
NCI-H3122	0.308
NCI-H1437	0.554
NCI-H1755	0.747
HCC-15	0.601
PC-3 [JPC-3]	0.84
EKVX	0.307
LC-2-ad	0.769
NCI-H1975	0.444
ABC-1	0.807
NCI-H1944	0.44
RERF-LC-KJ	0.565

Same assay, conditions: first compound 0.001581 µM

Cell Line	relative viability
HCC-44	0.988
LU99A	0.908
BEN	0.783
HARA	0.496
HCC-78	0.744
NCI-H322M	0.749
LCLC-97TM1	0.243
A-427	0.571
NCI-H460	0.466
NCI-H727	0.903
NCI-H1734	0.494
NCI-H2347	0.721
NCI-H1395	0.816
201T	0.917
NCI-H1915	0.283
HCC-827	0.356
LXF-289	0.426

Cell Line	relative viability
NCI-H23	0.306
NCI-H650	0.387
NCI-H1651	0.67
EPLC-272H	0.375
NCI-H1792	0.65
NCI-H1355	0.356
NCI-H3122	0.417
NCI-H1437	0.565
NCI-H1755	0.716
HCC-15	0.714
PC-3 [JPC-3]	0.781
EKVX	0.391
LC-2-ad	0.882
NCI-H1975	0.338
ABC-1	1.33
NCI-H1944	0.406
RERF-LC-KJ	0.697

Same assay, conditions: first compound 0.005 µM

Cell Line	relative viability
HCC-44	1.04
LU99A	0.943
BEN	0.803
HARA	0.442
HCC-78	0.669
NCI-H322M	0.683
LCLC-97TM1	0.209
A-427	0.506
NCI-H460	0.481
NCI-H727	1
NCI-H1734	0.394
NCI-H2347	0.619
NCI-H1395	0.765
201T	0.832
NCI-H1915	0.271
HCC-827	0.351
LXF-289	0.397

Cell Line	relative viability
NCI-H23	0.272
NCI-H650	0.351
NCI-H1651	0.731
EPLC-272H	0.378
NCI-H1792	0.683
NCI-H1355	0.323
NCI-H3122	0.392
NCI-H1437	0.614
NCI-H1755	0.713
HCC-15	0.771
PC-3 [JPC-3]	0.91
EKVX	0.36
LC-2-ad	0.743
NCI-H1975	0.382
ABC-1	0.987
NCI-H1944	0.497
RERF-LC-KJ	0.758

Same assay, conditions: first compound 0.01581 µM

Cell Line	relative viability
HCC-44	0.95
LU99A	0.645
BEN	0.835
HARA	0.207
HCC-78	0.65
NCI-H322M	0.664
LCLC-97TM1	0.233
A-427	0.493
NCI-H460	0.453
NCI-H727	0.67
NCI-H1734	0.32
NCI-H2347	0.578
NCI-H1395	0.784
201T	0.881
NCI-H1915	0.257
HCC-827	0.336
LXF-289	0.332

Cell Line	relative viability
NCI-H23	0.23
NCI-H650	0.323
NCI-H1651	0.47
EPLC-272H	0.403
NCI-H1792	0.406
NCI-H1355	0.369
NCI-H3122	0.321
NCI-H1437	0.575
NCI-H1755	0.652
HCC-15	0.766
PC-3 [JPC-3]	0.907
EKVX	0.359
LC-2-ad	0.838
NCI-H1975	0.373
ABC-1	0.911
NCI-H1944	0.411
RERF-LC-KJ	0.827

Compound: COc1cc(Nc2ncc(F)c(Nc3ccc4c(n3)NC(=O)C(C)(C)O4)n2)cc(OC)c1OC [R406] + O=C(c1cc(Cc2n[nH]c(=O)c3ccccc23)ccc1F)N1CCN(C(=O)C2CC2)CC1 [Olaparib] (partner 8 µM)
Assay: as above
Details: first compound 0.08 µM
Method in brief: as §1

Cell Line	relative viability
HCC-44	0.95
LU99A	0.244
BEN	1.09
HARA	0.826
HCC-78	0.83
NCI-H322M	0.654
LCLC-97TM1	0.371
A-427	0.717
NCI-H460	0.363
NCI-H727	0.533
NCI-H1734	0.641
NCI-H2347	0.556
NCI-H1395	0.455
201T	0.853
NCI-H1915	0.286
HCC-827	0.724

Reference: the supplement of paper PMC10307832
